Source: ChEMBL document CHEMBL1201862, “PubChem BioAssay data set” (2004)
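In this assay, cells in 96-well plates receive the compound at five concentrations for 48 hours. Endpoints are linearly interpolated between the surrounding concentrations. Here, GI50 denotes the concentration required for 50% inhibition of growth.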 Activity calls are given as the source filed them. Cut-off read from the data, not from the text of the source: active = GI50 up to about 1.1 µM and inactive = higher.

Experiments:
Test in all cases: DTP human tumour cell line panel, 48 h
786-0 = system: 786-0
A498 = system: A498
A549 = system: A549
ACHN = system: ACHN
BT-549 = system: BT-549
CAKI-1 = system: CAKI-1
CCRF-CEM = system: CCRF-CEM
COLO 205 = system: COLO 205
DU-145 = system: DU-145
EKVX = system: EKVX
HCC 2998 = system: HCC 2998
HCT-116 = system: HCT-116
HCT-15 = system: HCT-15
HL-60 = system: HL-60
HOP-62 = system: HOP-62
HOP-92 = system: HOP-92
HT-29 = system: HT-29
Hs-578T = system: Hs-578T
IGROV-1 = system: IGROV-1
K562 = system: K562
KM12 = system: KM12
LOX IMVI = system: LOX IMVI
M14 = system: M14
MCF7 = system: MCF7
MDA-MB-231 = system: MDA-MB-231
MDA-MB-435 = system: MDA-MB-435
MDA-N = system: MDA-N
MOLT-4 = system: MOLT-4
Malme-3M = system: Malme-3M
NCI-H226 = system: NCI-H226
NCI-H23 = system: NCI-H23
NCI-H460 = system: NCI-H460
NCI-H522 = system: NCI-H522
NCI/ADR-RES = system: NCI/ADR-RES
OVCAR-3 = system: OVCAR-3
OVCAR-4 = system: OVCAR-4
OVCAR-5 = system: OVCAR-5
OVCAR-8 = system: OVCAR-8
PC-3 = system: PC-3
RPMI-8226 = system: RPMI-8226
RXF 393 = system: RXF 393
SF-268 = system: SF-268
SF-295 = system: SF-295
SF-539 = system: SF-539
SK-MEL-28 = system: SK-MEL-28
SK-MEL-2 = system: SK-MEL-2
SK-MEL-5 = system: SK-MEL-5
SK-OV-3 = system: SK-OV-3
SN12C = system: SN12C
SNB-19 = system: SNB-19
SNB-75 = system: SNB-75
SR = system: SR
SW-620 = system: SW-620
T47D = system: T47D
TK-10 = system: TK-10
U-251 = system: U-251
UACC-257 = system: UACC-257
UACC-62 = system: UACC-62
UO-31 = system: UO-31

## CSC1=NN(C(C)=O)C(C(OC(C)=O)C(OC(C)=O)C(OC(C)=O)C(COC(C)=O)OC(C)=O)S1 (centres undefined)
786-0
  GI50: > 100 µM (inactive)
A498
  GI50: > 100 µM (inactive)
A549
  GI50: > 100 µM (inactive)
ACHN
  GI50: > 100 µM (inactive)
BT-549
  GI50: > 100 µM (inactive)
CAKI-1
  GI50: > 100 µM (inactive)
CCRF-CEM
  GI50: > 100 µM (inactive)
COLO 205
  GI50: > 100 µM (inactive)
DU-145
  GI50: > 100 µM (inactive)
EKVX
  GI50: > 100 µM (inactive)
HCC 2998
  GI50: > 100 µM (inactive)
HCT-116
  GI50: > 100 µM (inactive)
HCT-15
  GI50: > 100 µM
HL-60
  GI50: > 100 µM (inactive)
HOP-62
  GI50: > 100 µM (inactive)
HOP-92
  GI50: > 100 µM (inactive)
HT-29
  GI50: > 100 µM (inactive)
Hs-578T
  GI50: > 100 µM (inactive)
IGROV-1
  GI50: > 100 µM (inactive)
K562
  GI50: > 100 µM (inactive)
KM12
  GI50: > 100 µM (inactive)
LOX IMVI
  GI50: > 100 µM (inactive)
M14
  GI50: > 100 µM (inactive)
MCF7
  GI50: > 100 µM (inactive)
MDA-MB-231
  GI50: > 100 µM (inactive)
MDA-MB-435
  GI50: > 100 µM (inactive)
MDA-N
  GI50: > 100 µM (inactive)
MOLT-4
  GI50: > 100 µM (inactive)
Malme-3M
  GI50: > 100 µM (inactive)
NCI-H226
  GI50: > 100 µM (inactive)
NCI-H23
  GI50: > 100 µM (inactive)
NCI-H460
  GI50: > 100 µM (inactive)
NCI-H522
  GI50: > 100 µM (inactive)
NCI/ADR-RES
  GI50: > 100 µM (inactive)
OVCAR-3
  GI50: > 100 µM (inactive)
OVCAR-4
  GI50: > 100 µM (inactive)
OVCAR-5
  GI50: > 100 µM (inactive)
OVCAR-8
  GI50: > 100 µM (inactive)
PC-3
  GI50: > 100 µM (inactive)
RPMI-8226
  GI50: > 100 µM (inactive)
RXF 393
  GI50: > 100 µM (inactive)
SF-268
  GI50: > 100 µM (inactive)
SF-295
  GI50: > 100 µM (inactive)
SF-539
  GI50: > 100 µM (inactive)
SK-MEL-28
  GI50: > 100 µM (inactive)
SK-MEL-2
  GI50: > 100 µM (inactive)
SK-MEL-5
  GI50: > 100 µM (inactive)
SK-OV-3
  GI50: > 100 µM (inactive)
SN12C
  GI50: > 100 µM (inactive)
SNB-19
  GI50: > 100 µM (inactive)
SNB-75
  GI50: > 100 µM (inactive)
SR
  GI50: > 100 µM (inactive)
SW-620
  GI50: > 100 µM (inactive)
T47D
  GI50: > 100 µM (inactive)
TK-10
  GI50: > 100 µM (inactive)
U-251
  GI50: > 100 µM (inactive)
UACC-257
  GI50: > 100 µM (inactive)
UACC-62
  GI50: > 100 µM (inactive)
UO-31
  GI50: 11 µM (inactive)
